Measured values as given in ChEMBL document CHEMBL1201862, “PubChem BioAssay data set” (2004).
The source made the active and inactive calls.

Experiments:
[1] = biological target: Eukaryotic translation initiation factor 4E (Mus musculus, UniProt P63073); assay: eIF4E–eIF4G protein interaction inhibitors, dose response, biochemical, TR-FRET (AID 855); assay type: functional;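 note: potency for disrupting eIF4E binding to eIF4GI seen as loss of FRET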
[2] = biological target: T1, Caspase-6 (Homo sapiens, UniProt P55212); assay: human caspase-6 inhibitors, dose response, biochemical, VEID-R110 fluorescence, cherry-pick (AID 720632)
T1 sequence (P55212 whole entry): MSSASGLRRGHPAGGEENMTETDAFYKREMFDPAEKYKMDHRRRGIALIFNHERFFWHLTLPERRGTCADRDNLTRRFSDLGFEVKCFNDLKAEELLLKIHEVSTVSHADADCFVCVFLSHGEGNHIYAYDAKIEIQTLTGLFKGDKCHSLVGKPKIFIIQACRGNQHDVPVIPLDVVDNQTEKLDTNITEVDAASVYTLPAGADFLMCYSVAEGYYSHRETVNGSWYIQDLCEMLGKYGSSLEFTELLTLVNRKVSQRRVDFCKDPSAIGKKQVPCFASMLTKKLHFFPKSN

[3] = biological target: Caspase-9 (Homo sapiens, UniProt P55211); assay: caspase-9 enzyme inhibition, dose response, selectivity assay for caspase-6 inhibitor project, biochemical, fluorescence, plate reader, cherry-picked samples (AID 743293)
Caspase-9, sequence (P55211 1-315 limits assumed): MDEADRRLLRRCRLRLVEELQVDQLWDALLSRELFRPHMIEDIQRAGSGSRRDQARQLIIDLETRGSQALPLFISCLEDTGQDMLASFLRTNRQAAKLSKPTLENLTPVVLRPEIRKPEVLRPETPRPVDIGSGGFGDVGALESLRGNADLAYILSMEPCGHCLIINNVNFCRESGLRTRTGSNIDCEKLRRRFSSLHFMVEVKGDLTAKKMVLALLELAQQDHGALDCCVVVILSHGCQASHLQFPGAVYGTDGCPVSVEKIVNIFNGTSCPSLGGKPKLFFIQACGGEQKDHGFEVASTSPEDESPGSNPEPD
Caspase-9, sequence (P55211 331-416 limits assumed): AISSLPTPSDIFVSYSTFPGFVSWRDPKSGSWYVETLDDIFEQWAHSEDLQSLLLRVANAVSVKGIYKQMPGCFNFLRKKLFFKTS

[4] = biological target: Caspase-7 (Homo sapiens, UniProt P55210); assay: human caspase-7 inhibitors, dose response, selectivity assay for caspase-6 inhibitor project, biochemical, DEVD-R110 fluorescence, cherry-pick (AID 743295)
Caspase-7, sequence (P55210 24-198 limits assumed): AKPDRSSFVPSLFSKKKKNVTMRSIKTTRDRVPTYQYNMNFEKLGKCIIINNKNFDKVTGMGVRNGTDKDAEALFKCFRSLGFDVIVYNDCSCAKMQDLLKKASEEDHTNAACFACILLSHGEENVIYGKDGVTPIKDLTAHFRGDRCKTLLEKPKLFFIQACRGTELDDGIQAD
Caspase-7, sequence (P55210 207-303 limits assumed): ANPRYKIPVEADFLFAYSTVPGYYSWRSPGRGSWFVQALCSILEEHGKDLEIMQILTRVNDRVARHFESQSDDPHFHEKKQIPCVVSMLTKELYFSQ

[5] = biological target: Ephrin type-A receptor 4 (Mus musculus, UniProt Q03137); assay: inhibitors of EphA4 binding to KYL peptide, primary screen, biochemical, colorimetric, mouse EphA4 (AID 689); assay type: functional
Ephrin type-A receptor 4, sequence (Q03137 whole entry): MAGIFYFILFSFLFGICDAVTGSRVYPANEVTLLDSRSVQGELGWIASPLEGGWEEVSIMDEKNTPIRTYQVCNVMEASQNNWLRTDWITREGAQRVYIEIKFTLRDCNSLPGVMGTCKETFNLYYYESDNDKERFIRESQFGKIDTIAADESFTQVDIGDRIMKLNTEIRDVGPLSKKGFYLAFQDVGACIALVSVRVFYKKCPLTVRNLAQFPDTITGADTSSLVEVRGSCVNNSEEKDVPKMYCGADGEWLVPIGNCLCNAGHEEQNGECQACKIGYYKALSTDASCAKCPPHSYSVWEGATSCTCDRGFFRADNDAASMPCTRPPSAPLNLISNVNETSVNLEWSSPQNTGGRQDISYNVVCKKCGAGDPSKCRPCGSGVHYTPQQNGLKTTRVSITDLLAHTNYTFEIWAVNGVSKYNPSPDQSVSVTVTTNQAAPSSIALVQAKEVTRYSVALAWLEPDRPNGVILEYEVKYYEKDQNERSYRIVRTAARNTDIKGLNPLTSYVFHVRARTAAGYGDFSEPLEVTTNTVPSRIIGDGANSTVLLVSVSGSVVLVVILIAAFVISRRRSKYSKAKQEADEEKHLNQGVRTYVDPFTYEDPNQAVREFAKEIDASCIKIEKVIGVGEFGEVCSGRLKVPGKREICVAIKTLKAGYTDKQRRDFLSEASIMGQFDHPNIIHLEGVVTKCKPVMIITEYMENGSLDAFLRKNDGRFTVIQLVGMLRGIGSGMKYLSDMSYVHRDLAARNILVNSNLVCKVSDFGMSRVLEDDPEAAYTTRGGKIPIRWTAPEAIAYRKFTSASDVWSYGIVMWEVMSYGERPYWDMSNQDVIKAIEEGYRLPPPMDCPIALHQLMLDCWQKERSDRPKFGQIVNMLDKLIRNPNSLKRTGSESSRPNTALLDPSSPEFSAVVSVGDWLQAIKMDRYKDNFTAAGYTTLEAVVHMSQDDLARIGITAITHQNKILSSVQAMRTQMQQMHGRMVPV

[6] = biological target: Induced myeloid leukemia cell differentiation protein Mcl-1 (Homo sapiens, UniProt Q07820); assay type: functional
Induced myeloid leukemia cell differentiation protein Mcl-1, sequence (Q07820 whole entry): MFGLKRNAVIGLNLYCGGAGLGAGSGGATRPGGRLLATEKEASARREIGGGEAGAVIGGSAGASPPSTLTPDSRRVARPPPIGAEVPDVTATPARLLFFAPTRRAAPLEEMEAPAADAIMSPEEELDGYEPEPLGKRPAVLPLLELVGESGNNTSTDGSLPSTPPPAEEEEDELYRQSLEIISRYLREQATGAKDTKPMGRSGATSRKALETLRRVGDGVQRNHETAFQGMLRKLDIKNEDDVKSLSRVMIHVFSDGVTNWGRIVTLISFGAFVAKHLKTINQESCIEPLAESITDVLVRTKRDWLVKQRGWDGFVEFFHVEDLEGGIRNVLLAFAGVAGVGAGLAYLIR

[7] = biological target: Caspase-8 (Homo sapiens, UniProt Q14790); assay: caspase-8 inhibition counter-screen, dose response, selectivity assay for caspase-6 inhibitor project, biochemical, Z-IETD-R110 fluorescence, cherry-picked samples (AID 743294)
Caspase-8, sequence (Q14790 217-374 limits assumed): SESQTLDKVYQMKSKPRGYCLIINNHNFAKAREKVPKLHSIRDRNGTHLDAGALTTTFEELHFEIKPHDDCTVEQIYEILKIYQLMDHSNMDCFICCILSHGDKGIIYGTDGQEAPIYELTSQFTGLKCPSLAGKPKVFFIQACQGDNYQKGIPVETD
Caspase-8, sequence (Q14790 385-479 limits assumed): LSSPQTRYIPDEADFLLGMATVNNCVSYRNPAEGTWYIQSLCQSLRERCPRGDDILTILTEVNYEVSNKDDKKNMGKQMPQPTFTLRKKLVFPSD

[8] = biological target: T2, Corticotropin-releasing factor receptor 2/Corticotropin-releasing factor-binding protein (Homo sapiens, UniProt P24387+Q13324); assay: activators of CRF receptor 2 with binding protein – uHTS hits, confirmation (AID 602473); assay type: functional; conditions: read-out: EC50_Mean
T2 sequence (Q13324 whole entry): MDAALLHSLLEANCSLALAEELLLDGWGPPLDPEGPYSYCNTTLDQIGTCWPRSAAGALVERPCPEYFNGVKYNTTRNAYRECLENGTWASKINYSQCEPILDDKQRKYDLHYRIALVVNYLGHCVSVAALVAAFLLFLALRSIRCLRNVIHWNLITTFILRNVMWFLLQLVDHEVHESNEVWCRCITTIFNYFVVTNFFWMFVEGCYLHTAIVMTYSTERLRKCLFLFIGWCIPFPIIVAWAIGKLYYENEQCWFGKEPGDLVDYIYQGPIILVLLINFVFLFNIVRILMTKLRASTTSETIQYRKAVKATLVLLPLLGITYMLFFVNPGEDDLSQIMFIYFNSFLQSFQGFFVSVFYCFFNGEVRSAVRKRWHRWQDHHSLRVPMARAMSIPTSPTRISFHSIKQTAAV
T2 sequence (P24387 whole entry): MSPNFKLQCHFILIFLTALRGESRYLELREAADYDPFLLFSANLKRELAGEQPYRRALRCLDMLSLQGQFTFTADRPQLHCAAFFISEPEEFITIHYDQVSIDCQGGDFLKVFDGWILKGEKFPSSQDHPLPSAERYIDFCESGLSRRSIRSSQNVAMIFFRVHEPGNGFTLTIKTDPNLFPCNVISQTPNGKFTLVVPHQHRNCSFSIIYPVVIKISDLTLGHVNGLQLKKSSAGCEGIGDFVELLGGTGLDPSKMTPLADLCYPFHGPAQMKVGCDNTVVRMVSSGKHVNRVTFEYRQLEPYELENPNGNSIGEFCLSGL

[9] = HeLa cell cytotoxicity, dose response, cytotoxicity control for MgcRacGAP inhibitor project (AID 624300); assay type: functional
[10] = biological target: T2, Corticotropin-releasing factor receptor 2/Corticotropin-releasing factor-binding protein; assay: Dose Response confirmation of uHTS hits for small molecule antagonists of the CRF-binding protein and CRF-R2 receptor complex.; assay type: functional; conditions: read-out: IC50_Mean
[11] = biological target: T3, COUP transcription factor 2 (Homo sapiens, UniProt P24468); assay: Luminescence-based cell-based high throughput dose response assay to identify inhibitors of COUP-TFII (NR2F2).; assay type: functional;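 note: HEK293 cells transiently cotransfected with COUP-TFII expression vector and reporter; luciferase reporter luminescence driven by COUP-TFII from the pX2-168 reporter plasmid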
T3 sequence (P24468 whole entry): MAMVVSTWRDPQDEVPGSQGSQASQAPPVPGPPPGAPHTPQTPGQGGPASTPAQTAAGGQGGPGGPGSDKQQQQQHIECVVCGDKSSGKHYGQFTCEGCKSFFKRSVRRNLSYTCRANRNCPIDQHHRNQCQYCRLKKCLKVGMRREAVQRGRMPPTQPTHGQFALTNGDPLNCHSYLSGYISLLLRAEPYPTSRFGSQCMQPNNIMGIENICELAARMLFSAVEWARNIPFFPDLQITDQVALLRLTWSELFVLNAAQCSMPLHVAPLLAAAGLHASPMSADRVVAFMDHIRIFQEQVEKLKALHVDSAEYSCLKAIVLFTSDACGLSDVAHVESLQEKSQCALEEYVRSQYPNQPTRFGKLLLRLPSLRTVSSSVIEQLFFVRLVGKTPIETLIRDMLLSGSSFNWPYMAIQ

[12] = THP-1 cell cytotoxicity, dose response, cytotoxicity control for Vif-APOBEC3G degradation inhibitor project, THP-1 cells (AID 1117359); assay type: functional; conditions: Human immunodeficiency virus 1, THP-1
[13] = biological target: Glutathione-S-transferase (Schistosoma japonicum, UniProt Q26513); assay: biotin-GST/anti-GST TR-FRET signal inhibitors, dose response, artefact control for Vif-APOBEC3G degradation inhibitor project, biochemical (AID 1117362); assay type: functional
Glutathione-S-transferase, sequence (Q26513 whole entry): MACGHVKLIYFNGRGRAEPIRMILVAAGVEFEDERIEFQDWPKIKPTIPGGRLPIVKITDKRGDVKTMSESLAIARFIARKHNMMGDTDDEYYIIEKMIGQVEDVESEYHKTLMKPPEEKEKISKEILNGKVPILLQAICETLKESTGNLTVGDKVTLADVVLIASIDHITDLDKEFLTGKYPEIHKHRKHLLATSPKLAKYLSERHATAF

[14] = biological target: Nonstructural protein 1 (Influenza A virus, UniProt Q194T2); assay type: functional, Influenza A virus (A/California/07/2009(H1N1))
Nonstructural protein 1, sequence (Q194T2 whole entry): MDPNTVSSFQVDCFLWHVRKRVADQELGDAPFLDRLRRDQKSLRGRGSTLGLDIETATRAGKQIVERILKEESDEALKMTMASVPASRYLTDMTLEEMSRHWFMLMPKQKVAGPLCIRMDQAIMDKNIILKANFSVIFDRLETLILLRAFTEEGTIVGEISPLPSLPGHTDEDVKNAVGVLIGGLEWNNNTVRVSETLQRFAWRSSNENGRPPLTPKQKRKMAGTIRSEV

[15] = biological target: T4, Rac GTPase-activating protein 1 (Homo sapiens, UniProt Q9H0H5); assay: MgcRacGAP GTPase-activating activity inhibitors, confirmation, biochemical, ADP Hunter fluorescence, primary and confirmatory (AID 624330); assay type: functional
T4 sequence (Q9H0H5 whole entry): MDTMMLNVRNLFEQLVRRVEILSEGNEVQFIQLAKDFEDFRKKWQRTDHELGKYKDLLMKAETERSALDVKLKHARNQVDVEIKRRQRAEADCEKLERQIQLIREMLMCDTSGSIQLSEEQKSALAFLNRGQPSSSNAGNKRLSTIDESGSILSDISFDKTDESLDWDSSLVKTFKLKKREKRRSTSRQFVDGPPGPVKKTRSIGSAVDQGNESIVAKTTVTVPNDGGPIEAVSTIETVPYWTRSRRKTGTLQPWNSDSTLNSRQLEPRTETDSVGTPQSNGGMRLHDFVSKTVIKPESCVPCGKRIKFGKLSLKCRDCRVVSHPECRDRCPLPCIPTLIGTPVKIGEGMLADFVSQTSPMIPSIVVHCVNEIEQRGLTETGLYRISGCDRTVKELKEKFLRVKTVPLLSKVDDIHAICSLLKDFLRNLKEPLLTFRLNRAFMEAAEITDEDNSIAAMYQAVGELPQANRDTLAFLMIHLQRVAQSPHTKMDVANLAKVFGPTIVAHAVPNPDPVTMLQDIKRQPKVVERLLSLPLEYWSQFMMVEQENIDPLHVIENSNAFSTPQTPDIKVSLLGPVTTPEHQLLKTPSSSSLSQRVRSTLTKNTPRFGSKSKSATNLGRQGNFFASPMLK

[16] = biological target: T5, Histone-lysine N-methyltransferase NSD2 (Homo sapiens, UniProt O96028); assay type: biochemical
T5 sequence (O96028 whole entry): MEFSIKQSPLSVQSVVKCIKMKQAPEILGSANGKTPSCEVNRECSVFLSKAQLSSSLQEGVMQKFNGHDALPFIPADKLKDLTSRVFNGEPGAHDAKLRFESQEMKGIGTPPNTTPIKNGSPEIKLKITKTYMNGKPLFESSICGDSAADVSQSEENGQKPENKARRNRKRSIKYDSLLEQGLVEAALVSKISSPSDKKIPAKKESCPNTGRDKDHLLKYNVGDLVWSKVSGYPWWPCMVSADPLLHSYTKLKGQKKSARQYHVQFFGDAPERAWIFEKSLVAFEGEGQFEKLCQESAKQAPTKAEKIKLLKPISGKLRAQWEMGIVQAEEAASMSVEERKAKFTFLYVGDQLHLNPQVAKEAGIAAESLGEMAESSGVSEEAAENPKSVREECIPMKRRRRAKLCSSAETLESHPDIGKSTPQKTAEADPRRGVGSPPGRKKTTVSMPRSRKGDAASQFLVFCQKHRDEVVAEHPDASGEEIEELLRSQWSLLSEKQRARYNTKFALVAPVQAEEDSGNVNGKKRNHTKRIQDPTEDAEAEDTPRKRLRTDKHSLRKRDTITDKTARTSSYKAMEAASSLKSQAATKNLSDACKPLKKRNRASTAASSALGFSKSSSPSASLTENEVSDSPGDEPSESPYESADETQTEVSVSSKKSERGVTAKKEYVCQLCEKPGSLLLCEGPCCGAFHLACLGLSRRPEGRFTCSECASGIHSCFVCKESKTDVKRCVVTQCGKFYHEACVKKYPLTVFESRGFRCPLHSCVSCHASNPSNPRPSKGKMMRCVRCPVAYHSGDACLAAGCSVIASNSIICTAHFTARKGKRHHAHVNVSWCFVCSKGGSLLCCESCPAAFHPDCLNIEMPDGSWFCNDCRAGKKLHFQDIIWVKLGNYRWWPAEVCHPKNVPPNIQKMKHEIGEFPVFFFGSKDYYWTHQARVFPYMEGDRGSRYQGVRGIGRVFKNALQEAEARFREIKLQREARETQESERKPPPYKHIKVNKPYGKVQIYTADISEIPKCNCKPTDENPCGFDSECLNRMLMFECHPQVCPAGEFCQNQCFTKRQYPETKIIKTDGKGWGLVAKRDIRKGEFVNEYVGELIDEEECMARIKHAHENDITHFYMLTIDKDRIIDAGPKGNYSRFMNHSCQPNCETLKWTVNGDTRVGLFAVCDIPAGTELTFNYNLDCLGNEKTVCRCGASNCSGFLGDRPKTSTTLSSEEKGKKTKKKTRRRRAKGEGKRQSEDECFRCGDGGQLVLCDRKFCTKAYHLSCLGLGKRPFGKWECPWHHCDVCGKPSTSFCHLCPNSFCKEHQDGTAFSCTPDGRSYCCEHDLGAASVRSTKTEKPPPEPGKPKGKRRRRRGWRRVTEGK

[17] = biological target: Oxysterols receptor LXR-beta (Homo sapiens, UniProt P55055); assay: LXR agonists, Gal4 luciferase reporter, dose response, counter-screen for ssDAF-12 agonist project, cell-based, luminescence, HEK293, S. stercoralis campaign (AID 720737); assay type: functional; conditions: read-out: IC50 (the source's name)
Oxysterols receptor LXR-beta, sequence (P55055 whole entry, the tested form may be a part): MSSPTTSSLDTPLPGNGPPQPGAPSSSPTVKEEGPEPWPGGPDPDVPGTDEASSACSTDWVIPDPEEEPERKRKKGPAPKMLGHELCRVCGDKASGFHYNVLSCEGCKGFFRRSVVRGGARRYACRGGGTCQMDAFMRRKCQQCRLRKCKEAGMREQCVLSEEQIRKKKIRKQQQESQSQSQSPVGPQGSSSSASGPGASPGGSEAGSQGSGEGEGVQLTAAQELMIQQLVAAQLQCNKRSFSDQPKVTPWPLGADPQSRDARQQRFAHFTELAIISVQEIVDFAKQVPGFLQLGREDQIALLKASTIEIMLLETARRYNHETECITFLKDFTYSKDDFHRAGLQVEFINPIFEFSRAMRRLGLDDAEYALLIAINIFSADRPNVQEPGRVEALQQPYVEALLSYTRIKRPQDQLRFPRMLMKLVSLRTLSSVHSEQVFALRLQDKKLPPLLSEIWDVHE

[18] = Luminescence-based cell-based high throughput dose response assay to identify activators of the DAF-12 from the parasite S. stercoralis (ssDAF-12).; assay type: functional

Eukaryotic translation initiation factor 4E, sequence (P63073 whole entry): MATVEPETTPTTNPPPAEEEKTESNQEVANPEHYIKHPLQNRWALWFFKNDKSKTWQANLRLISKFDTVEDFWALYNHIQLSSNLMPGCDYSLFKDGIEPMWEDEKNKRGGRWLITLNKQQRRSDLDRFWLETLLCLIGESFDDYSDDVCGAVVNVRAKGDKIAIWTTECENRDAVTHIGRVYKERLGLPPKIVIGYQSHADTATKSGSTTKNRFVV

COc1ccc(S(=O)(=O)Nc2cc(Sc3nc[nH]n3)c(O)c3ccccc23)cc1
active: AC50 [2] 0.998 µM | AC50 [3] 31.6 µM | AC50 [4] 8.7 µM | IC50 [5] 6.77 µM | IC50 [6] 7.73 µM | AC50 [7] 22 µM
inactive: IC50 [1] > 64 µM

Cc1cc2c(=Cc3ccc(N(C)C)cc3)c3ccccc3n2[n+]1C
inactive: EC50 [8] > 53 µM | IC50 [10] > 47.1 µM
active: CC50 [9] 18.5 µM | IC50 [11] 3.87 µM | CC50 [12] 1.02 µM | IC50 [13] 7.36 µM | IC50 [14] 20.9 µM | IC50 [15] 45.4 µM | AC50 [16] 17.6 µM

O=C(NCc1cccs1)c1cccc2c(-c3ccc(F)c(F)c3)coc12
inactive: EC50 [17] > 67.5 µM | IC50 [18] > 67.5 µM
